Laboratory results published in patent US12454531B2, “Substituted piperazine derivatives useful as T cell activators” (BRISTOL-MYERS SQUIBB COMPANY, priority 2019, dated 2025).

Biological target: DGKα (Homo sapiens (Human), UniProt P23743)
Test: Assay 1: In Vitro DGK Inhibition Assays, Method A (DGKα LIPGLO, extruded liposome)
Format: biochemical
Details: extruded liposome substrate, 150 μM ATP
Protocol: (§1) Assay 1: In Vitro DGK Inhibition Assays—Method A
(§2) The DGKα and DGKζ reactions were performed using either extruded liposome (DGKα and DGKζ LIPGLO assays) or detergent/lipid micelle substrate (DGKα and DGKζ assays). The reactions were carried out in 50 mM MOPS pH 7.5, 100 mM NaCl, 10 mM MgCl2, 1 μM CaCl2), and 1 mM DTT (assay buffer). The reactions using a detergent/lipid micelle substrate also contained 50 mM octyl B-D-glucopyranoside. The lipid substrate concentrations were 11 mM PS and 1 mM DAG for the detergent/lipid micelle reactions. The lipid substrate concentrations were 2 mM PS, 0.25 mM DAG, and 2.75 mM PC for the extruded liposome reactions. The reactions were carried out in 150 μM ATP. The enzyme concentrations for the DGKα and DGKζ were 5 nM
(§3) The compound inhibition studies were carried out as follows: 50 nL droplets of each test compound (top concentration 10 mM with 11 point, 3-fold dilution series for each compound) solubilized in DMSO were transferred to wells of a white 1536 well plate (Corning 3725). A 5 mL enzyme/substrate solution at 2× final reaction concentration was prepared by combining 2.5 mL 4× enzyme solution (20 nM DGKα or DGKζ (prepared as described below) in assay buffer) and 2.5 mL of either 4× liposome or 4× detergent/lipid micelle solution (compositions described below) and incubated at room temperature for 10 minutes. Next, 1 μL 2× enzyme/substrate solution was added to wells containing the test compound and reactions were initiated with the addition of 1 μL 300 uM ATP. The reactions were allowed to proceed for 1 hr, after which 2 μL Glo Reagent (Promega V9101) was added and incubated for 40 minutes. Next, 4 μL Kinase Detection Reagent was added and incubated for 30 minutes. Luminescence was recorded using an EnVision microplate reader. […] The compounds were evaluated at 11 concentrations to determine IC50.
(§4) The lipid composition was 5 mol % DAG (Avanti 8008110), 40 mol % PS (Avanti 840035P), and 55 mol % PC (Avanti 850457) at a total lipid concentration of 15.2 mg/mL for the 4× liposome solution. The PC, DAG, and PS were dissolved in chloroform, combined, and dried in vacuo to a thin film. The lipids were hydrated to 20 mM in 50 mM MOPS pH 7.5, 100 mM NaCl, 5 mM MgCl2, and were freeze-thawed five times. The lipid suspension was extruded through a 100 nm polycarbonate filter eleven times. […] The liposome preparation was stored at 4° C. for as long as four weeks.
(§5) Baculovirus amplification was achieved using infected Sf9 cells at 1:1500 virus/cell ratios, and grown for 65 hours at 27° C. post-transfection.
(§6) The cells were lysed using nitrogen cavitation method with a nitrogen bomb (Parr Instruments), and the lysates were clarified by centrifugation. […] The three steps column chromatography included nickel affinity resin capture (i.e. HisTrap FF crude, GE Healthcare), followed by size exclusion chromatography (i.e. HiLoad 26/600 Superdex 200 prep grade, GE Healthcare for DGK-alpha, and HiPrep 26/600 Sephacryl S 300_HR, GE Healthcare for DGK-zeta). The third step was ion exchange chromatography, and differed for the two isoforms. DGKα was polished using Q-Sepharose anion exchange chromatography (GE Healthcare). DGKζ was polished using SP Sepharose cation exchange chromatography (GE Healthcare). The proteins were delivered at concentrations of ≥2 mg/mL. The formulation buffers were identical for both proteins: 50 mM Hepes, pH 7.2, 500 mM NaCl, 10% v/v glycerol, 1 mM TCEP, and 0.5 mM EDTA.

Chain of DGKα (P23743 whole entry): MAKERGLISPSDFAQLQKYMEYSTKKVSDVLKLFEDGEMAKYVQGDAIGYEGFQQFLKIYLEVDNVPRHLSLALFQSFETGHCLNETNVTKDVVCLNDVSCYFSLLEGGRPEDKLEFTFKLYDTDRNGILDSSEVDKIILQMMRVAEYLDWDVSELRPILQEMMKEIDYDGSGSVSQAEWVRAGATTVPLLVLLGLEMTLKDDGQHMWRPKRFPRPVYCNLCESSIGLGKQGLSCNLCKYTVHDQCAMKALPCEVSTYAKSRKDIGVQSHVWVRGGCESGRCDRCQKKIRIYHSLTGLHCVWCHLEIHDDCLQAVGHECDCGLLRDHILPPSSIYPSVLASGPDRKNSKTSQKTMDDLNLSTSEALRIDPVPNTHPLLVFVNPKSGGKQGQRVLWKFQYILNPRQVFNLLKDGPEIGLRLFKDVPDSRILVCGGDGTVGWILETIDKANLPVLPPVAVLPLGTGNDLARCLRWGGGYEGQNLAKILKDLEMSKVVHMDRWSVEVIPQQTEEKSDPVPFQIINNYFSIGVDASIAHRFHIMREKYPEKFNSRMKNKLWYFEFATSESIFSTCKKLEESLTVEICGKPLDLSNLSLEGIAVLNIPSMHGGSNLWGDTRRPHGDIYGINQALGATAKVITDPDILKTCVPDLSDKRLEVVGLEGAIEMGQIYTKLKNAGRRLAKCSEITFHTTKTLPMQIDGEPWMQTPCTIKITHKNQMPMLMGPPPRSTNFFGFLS

IC50 | Compound
0.51 µM | C[C@@H]1CN(c2cc(=O)n(C)c3ccc(C#N)nc23)[C@@H](C)CN1C(C(=O)N1CCCCC1)c1ccc(F)cc1 (single isomer, unassigned) [Example 11]
6.36 µM | C[C@@H]1CN(c2cc(=O)n(C)c3ccc(C#N)nc23)[C@@H](C)CN1C(CC(=O)NC(C)(C)C)c1ccc(F)cc1 (single isomer, unassigned) [Example 33]
4.04 µM | C[C@@H]1CN(c2cc(=O)n(C)c3ccc(C#N)nc23)[C@@H](C)CN1C(CC(=O)NC(C)(C)C)c1ccc(F)cc1 (single isomer, unassigned) [Example 34]

Test system: Human whole blood IFN-γ
Test: Assay 10: Human Whole Blood IFN-γ Assay
Format: cell-based
Details: Homo sapiens, 24 h, anti-CD3 and anti-CD28 stimulation, 100% = 3 μM reference compound, read-out: INFg Whole Blood Normalized Agonist EC50
Protocol: Assay 10: Human Whole Blood IFN-γ Assay
Human venous whole blood (22.5 μL per well), obtained from healthy donors, was pre-treated with compounds for one hour at 37° C. in a humidified 95% air/5% CO2 incubator. The blood was stimulated with 2.5 μL anti-human CD3 and anti-CD28 mAb at a final concentration of 1 μg/mL each for 24 hours at 37° C. IFN-7 in the supernatants was measured using AlphLISA kit (Cat #AL217).

Compound | EC50
C[C@@H]1CN(c2cc(=O)n(C)c3ccc(C#N)nc23)[C@@H](C)CN1C(C(=O)O)c1ccc(F)cc1 (single isomer, unassigned) [Example 10] | 20 µM
CC(C(=O)NC1CCCC1)N1C[C@H](C)N(c2cc(=O)n(C)c3ccc(C#N)nc23)C[C@H]1C (single isomer, unassigned) [Example 43] | 20 µM
C[C@@H]1CN(c2cc(=O)n(C)c3ccc(C#N)nc23)[C@@H](C)CN1C(c1ccc(F)cc1)P(C)(C)=O (single isomer, unassigned) [Example 49] | 20 µM
COC(=O)C(c1ccc(F)cc1)N1C[C@H](C)N(c2cc(=O)n(C)c3ccc(C#N)nc23)C[C@H]1C (stereo partly drawn) [Example 7, Methyl 2-((2R,5S)-4-(6-cyano-1-methyl-2-oxo-1,2-dihydro-1,5-naphthyridin-4-yl)-2,5-dimethylpiperazin-1-yl)-2-(4-fluorophenyl)acetate] | 0.1 µM
C[C@@H]1CN(c2cc(=O)n(C)c3ccc(C#N)nc23)[C@@H](C)CN1C(C(N)=O)c1ccc(F)cc1 (stereo partly drawn) [Example 13, 2-((2R,5S)-4-(6-cyano-1-methyl-2-oxo-1,2-dihydro-1,5-naphthyridin-4-yl)-2,5-dimethylpiperazin-1-yl)-2-(4-fluorophenyl)acetamide] | 20 µM
C[C@@H]1CN(c2cc(=O)n(C)c3ccc(C#N)nc23)[C@@H](C)CN1C(C(=O)N(C)C)c1ccc(F)cc1 (stereo partly drawn) [Example 23, 2-((2R,5S)-4-(6-cyano-1-methyl-2-oxo-1,2-dihydro-1,5-naphthyridin-4-yl)-2,5-dimethylpiperazin-1-yl)-2-(4-fluorophenyl)-N,N-dimethylacetamide] | 20 µM
C[C@@H]1CN(c2cc(=O)n(C)c3ccc(C#N)nc23)[C@@H](C)CN1C(C(=O)NCCO)c1ccc(F)cc1 (stereo partly drawn) [Example 27, 2-((2R,5S)-4-(6-cyano-1-methyl-2-oxo-1,2-dihydro-1,5-naphthyridin-4-yl)-2,5-dimethylpiperazin-1-yl)-2-(4-fluorophenyl)-N-(2-hydroxyethyl)acetamide] | 1.54 µM
CC(C(=O)Nc1cnn(C)c1)N1C[C@H](C)N(c2cc(=O)n(C)c3ccc(C#N)nc23)C[C@H]1C (stereo partly drawn) [Example 45, 2-((2R,5S)-4-(6-cyano-1-methyl-2-oxo-1,2-dihydro-1,5-naphthyridin-4-yl)-2,5-dimethylpiperazin-1-yl)-N-(1-methyl-1H-pyrazol-4-yl)propanamide] | 20 µM
CC(C(=O)NC1CC1)N1C[C@H](C)N(c2cc(=O)n(C)c3ccc(C#N)nc23)C[C@H]1C (stereo partly drawn) [Example 47, 2-((2R,5S)-4-(6-cyano-1-methyl-2-oxo-1,2-dihydro-1,5-naphthyridin-4-yl)-2,5-dimethylpiperazin-1-yl)-N-cyclopropylpropanamide] | 20 µM

Same assay, conditions: anti-CD3 and anti-CD28 stimulation, 24 hours, 100% = 3 μM reference compound, read-out: INFg Whole Blood Normalized Agonist EC50

Compound | EC50
CC(C)OC(=O)C(c1ccc(F)cc1)N1C[C@H](C)N(c2cc(=O)n(C)c3ccc(C#N)nc23)C[C@H]1C (single isomer, unassigned) [Example 1] | 0.61 µM
COC(=O)CC(c1ccc(F)cc1)N1C[C@H](C)N(c2cc(=O)n(C)c3ccc(C#N)nc23)C[C@H]1C (single isomer, unassigned) [Example 31] | 0.15 µM
COC(=O)CC(c1ccc(F)cc1)N1C[C@H](C)N(c2cc(=O)n(C)c3ccc(C#N)nc23)C[C@H]1C (single isomer, unassigned) [Example 32] | 1.81 µM
CC(C(=O)NC1CCCC1)N1C[C@H](C)N(c2cc(=O)n(C)c3ccc(C#N)nc23)C[C@H]1C (single isomer, unassigned) [Example 44] | 20 µM
C[C@@H]1CN(c2cc(=O)n(C)c3ccc(C#N)nc23)[C@@H](C)CN1C(c1ccc(F)cc1)P(C)(C)=O (single isomer, unassigned) [Example 50] | 20 µM
C[C@@H]1CN(c2cc(=O)n(C)c3ccc(C#N)nc23)[C@@H](C)CN1C(C(N)=O)c1ccc(F)cc1 (stereo partly drawn) [Example 14, 2-((2R,5S)-4-(6-cyano-1-methyl-2-oxo-1,2-dihydro-1,5-naphthyridin-4-yl)-2,5-dimethylpiperazin-1-yl)-2-(4-fluorophenyl)acetamide] | 20 µM
C[C@@H]1CN(c2cc(=O)n(C)c3ccc(C#N)nc23)[C@@H](C)CN1C(C(=O)N1CCCC1)c1ccc(F)cc1 (stereo partly drawn) [Example 21, 8-((2S,5R)-4-(1-(4-fluorophenyl)-2-oxo-2-(pyrrolidin-1-yl)ethyl)-2,5-dimethylpiperazin-1-yl)-5-methyl-6-oxo-5,6-dihydro-1,5-naphthyridine-2-carbonitrile] | 2.56 µM
C[C@@H]1CN(c2cc(=O)n(C)c3ccc(C#N)nc23)[C@@H](C)CN1C(C(=O)N1CCCC1)c1ccc(F)cc1 (stereo partly drawn) [Example 22, 8-((2S,5R)-4-(1-(4-fluorophenyl)-2-oxo-2-(pyrrolidin-1-yl)ethyl)-2,5-dimethylpiperazin-1-yl)-5-methyl-6-oxo-5,6-dihydro-1,5-naphthyridine-2-carbonitrile] | 9.03 µM
C[C@@H]1CN(c2cc(=O)n(C)c3ccc(C#N)nc23)[C@@H](C)CN1C(C(=O)N(C)C)c1ccc(F)cc1 (stereo partly drawn) [Example 24, 2-((2R,5S)-4-(6-cyano-1-methyl-2-oxo-1,2-dihydro-1,5-naphthyridin-4-yl)-2,5-dimethylpiperazin-1-yl)-2-(4-fluorophenyl)-N,N-dimethylacetamide] | 20 µM
CNC(=O)C(c1ccc(F)cc1)N1C[C@H](C)N(c2cc(=O)n(C)c3ccc(C#N)nc23)C[C@H]1C (stereo partly drawn) [Example 25, 2-((2R,5S)-4-(6-cyano-1-methyl-2-oxo-1,2-dihydro-1,5-naphthyridin-4-yl)-2,5-dimethylpiperazin-1-yl)-2-(4-fluorophenyl)-N-methylacetamide] | 5.12 µM
CC(C(=O)Nc1cnn(C)c1)N1C[C@H](C)N(c2cc(=O)n(C)c3ccc(C#N)nc23)C[C@H]1C (stereo partly drawn) [Example 46, 2-((2R,5S)-4-(6-cyano-1-methyl-2-oxo-1,2-dihydro-1,5-naphthyridin-4-yl)-2,5-dimethylpiperazin-1-yl)-N-(1-methyl-1H-pyrazol-4-yl)propanamide] | 20 µM
CC(C(=O)NC1CC1)N1C[C@H](C)N(c2cc(=O)n(C)c3ccc(C#N)nc23)C[C@H]1C (stereo partly drawn) [Example 48, 2-((2R,5S)-4-(6-cyano-1-methyl-2-oxo-1,2-dihydro-1,5-naphthyridin-4-yl)-2,5-dimethylpiperazin-1-yl)-N-cyclopropylpropanamide] | 20 µM

Biological target: DGKζ (Homo sapiens (Human), UniProt Q13574)
Test: Assay 1 or 2: In Vitro DGK Inhibition Assays (DGKζ LIPGLO, extruded liposome)
Format: biochemical
Details: extruded liposome substrate, 150 μM ATP
Protocol: as §1, §2, §3, §4, §5, §6
Assay 2: In Vitro DGK Inhibition Assays—Method B
The DGKα and DGKζ reactions were performed using either extruded liposome (DGKα and DGKζ LIPGLO assays) or detergent/lipid micelle substrate (DGKα and DGKζ assays).

Chain of DGKζ (Q13574 other isoform, or with tags, fused parts or gaps): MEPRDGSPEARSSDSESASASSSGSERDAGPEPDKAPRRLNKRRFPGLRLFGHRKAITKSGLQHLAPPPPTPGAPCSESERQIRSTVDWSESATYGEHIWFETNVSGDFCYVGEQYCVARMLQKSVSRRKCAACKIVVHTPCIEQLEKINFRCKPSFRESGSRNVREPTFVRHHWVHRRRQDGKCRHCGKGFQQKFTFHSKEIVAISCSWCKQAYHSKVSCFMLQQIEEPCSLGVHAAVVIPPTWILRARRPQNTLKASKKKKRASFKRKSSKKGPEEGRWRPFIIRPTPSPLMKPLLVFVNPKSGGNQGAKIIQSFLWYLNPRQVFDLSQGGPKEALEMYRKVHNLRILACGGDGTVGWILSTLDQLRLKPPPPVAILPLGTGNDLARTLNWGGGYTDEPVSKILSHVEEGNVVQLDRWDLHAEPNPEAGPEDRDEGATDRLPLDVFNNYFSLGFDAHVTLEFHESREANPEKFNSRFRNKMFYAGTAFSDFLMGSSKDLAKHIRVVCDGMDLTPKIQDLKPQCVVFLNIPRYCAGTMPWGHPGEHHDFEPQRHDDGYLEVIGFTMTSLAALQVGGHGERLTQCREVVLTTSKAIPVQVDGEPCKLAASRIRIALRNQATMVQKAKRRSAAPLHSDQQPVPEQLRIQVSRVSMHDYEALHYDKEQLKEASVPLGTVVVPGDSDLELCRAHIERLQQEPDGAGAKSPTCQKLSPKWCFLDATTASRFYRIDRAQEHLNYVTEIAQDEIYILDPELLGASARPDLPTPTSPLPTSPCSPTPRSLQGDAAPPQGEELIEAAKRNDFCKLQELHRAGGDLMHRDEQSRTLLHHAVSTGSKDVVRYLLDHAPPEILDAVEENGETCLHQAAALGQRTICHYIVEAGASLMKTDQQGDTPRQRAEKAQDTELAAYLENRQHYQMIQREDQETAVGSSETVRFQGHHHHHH

IC50 | Compound
1.22 µM | C[C@@H]1CN(c2cc(=O)n(C)c3ccc(C#N)nc23)[C@@H](C)CN1C(C(=O)N1CCCCC1)c1ccc(F)cc1 (single isomer, unassigned) [Example 11]
11.1 µM | C[C@@H]1CN(c2cc(=O)n(C)c3ccc(C#N)nc23)[C@@H](C)CN1C(CC(=O)NC(C)(C)C)c1ccc(F)cc1 (single isomer, unassigned) [Example 33]
6.84 µM | C[C@@H]1CN(c2cc(=O)n(C)c3ccc(C#N)nc23)[C@@H](C)CN1C(CC(=O)NC(C)(C)C)c1ccc(F)cc1 (single isomer, unassigned) [Example 34]
